Laboratory results taken from patent US8404703B2, “Medicinal compositions containing aspirin” (Daiichi Sankyo Company, Limited, priority 2000, dated 2013).

System: thrombogenesis or thrombus formation
Assay: Inhibitory activity against thrombogenesis, modified arterio-venous shunt thrombosis model in rats
Type: in vivo, male Sprague Dawley rats
Settings: oral, shunt circulation started 2 h after administration, 30 min circulation, average ±SE (n=6)
Text: As the test animals, male Sprague Dawley rats of 7 weeks old were purchased from SLC Japan and 6 rats per group were used.
2-Acetoxy-5-(α-cyclopropylcarbonyl-2-fluorobenzyl)-4,5,6,7-tetrahydrothieno[3,2-c]pyridine was synthesized according to the method described in the Specification of Japanese Patent Application Publication No. Hei 6-41139 and was used, while aspirin was purchased from Sigma Chemical Co. and was used. Both compounds were suspended in 5% (w/v) gum arabic solution, and were diluted so as to be 1 ml/kg of administration volume and were orally administered.
The inhibitory activities of the compounds against thrombogenesis or thrombus formation were evaluated in the modified arterio-venous shunt thrombosis model in rats, which was described by Umetsu et al. [Thromb. Haemost., 39, 74-83 (1978)].
The shunt tube was prepared as follows; i.e., both sides of a medical silicon tube of 12 cm length [inner diameter: 1.5 mm, outer diameter: 2.5 mm, purchased from KANEKA Medix Co., Ltd] were connected each to a polyethylene tube of 7 cm length [inner diameter: 0.5 mm, outer diameter: 1.0 mm, purchased from Natsume Seisakusho Co., Ltd.] covered with silicon via a medical silicon tube of 0.7 cm length [inner diameter: 1.0 mm, outer diameter: 1.5 mm, KANEKA Medix Co., Ltd] as connector. A surgical suture of 10 cm length was placed in the silicon tube of 12 cm length.
The animal was anesthetized with an intraperitoneal injection of 40 mg/kg of pentobarbital sodium (purchased from Abbott Laboratories Inc.), and the jugular of one side and the carotid of the other side were exposed. The arteriovenous shunt was made by cannulation of a shunt tube filled with heparin solution [[…], purchased from Fuso Pharmaceutical Co., Ltd] into the carotid and the jugular which had been previously exposed.
The test compounds were orally administered and the blood was started to circulate into the shunt area two hours after the administration. Thirty minutes after the circulation was started, the shunt tube was removed, and the thrombus adsorbed on the surgical suture was weighed. The results in the table are expressed as the average weight ±SE (n=6).

SMILES	Inhibition Rate (Aspirin 10 mg/kg alone) [%]	Thrombus Weight (Aspirin 10 mg/kg alone) [mg]	Inhibition Rate (Compound A 0.3 mg/kg alone) [%]	Thrombus Weight (Compound A 0.3 mg/kg alone) [mg]	Inhibition Rate (Compound A 0.6 mg/kg alone) [%]	Thrombus Weight (Compound A 0.6 mg/kg alone) [mg]
CC(=O)Oc1ccccc1C(=O)O [Aspirin, aspirin]	12.3 ± 4.4	46.6 ± 2.8	–	–	–	–
CC(=O)Oc1cc2c(s1)CCN(C(C(=O)C1CC1)c1ccccc1F)C2 (stereo not drawn) [Compound A, 2-Acetoxy-5-(α-cyclopropylcarbonyl-2-fluorobenzyl)-4,5,6,7-tetrahydrothieno[3,2-c]pyridine]	–	–	17.0 ± 4.1	43.5 ± 2.1	28.3 ± 4.0	37.5 ± 2.1
